Test results reported in US20020002171A1, “Materials and methods for killing nematodes and nematode eggs” (priority 2000, published 2002).

system: Caenorhabditis elegans; assay: C. elegans L1 nematicidal dose response in 96-well plates, 5 day visual score (Example 2; same procedure for Example 7, Table 3); format: in vivo; design: key to 5 Day Visual Score V1 / 5 Day Visual Score V2 / 5 Day Visual Score V3 / 5 Day Visual Score V4 / 5 Day Visual Score V6 / 5 Day Visual Score V5 / Initial HTS Run Visual Score / Follow-up HTS Run Visual Score: Dead: only stiff L1s (no movement); Dead (L4): worms are dead, but at a later larval stage; majority of worms are L1 (based on size) worms move when plate is tapped; majority of worms are L2 (based on size); majority of worms are L3 (based on size); majority of worms are L4 (based on size); AD: majority of worms are adult; #AD: 5 adult worms or less; B!: sterile (0-25 progeny); B: low broodsize (25-100 progeny); ˜B: moderate broodsize (100-250 progeny); <: reduced broodsize (250-500 progeny); OK: no effect (˜1000+ progeny); settings: 0.3 μM, C. elegans L1, scored day 5
Outline: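 Scoring was by eye at 100× on day 5, after incubation at 20° C, of 20 C. elegans L1s per well fed 1% E. coli HB101 in NGM. Compound columns V1–V6 spanned 70 μM to 0.3 μM in 3-fold steps, with 1.4% DMSO in the top well and as control.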

SMILES	5 Day Visual Score V6
Fc1ccc(N2CCN(c3nc(NCCC(c4ccccc4)c4ccccc4)ns3)CC2)cc1 [AKC 134]	OK (no effect (˜1000+ progeny))
O=C(Nc1ccc(Br)cc1)NC1CCC(c2nc(-c3ccccc3)no2)CC1 (centres unmarked) [AKC 114]	˜B (moderate broodsize (100-250 progeny))
CCOc1ccc(C2ON=C(c3ccc(N(C)C)cc3)C2C(=O)NCCc2ccc(F)cc2)cc1 (centres unmarked) [AKC 123]	#AD/˜B
CCCc1ccc(C(Nc2ccc(-c3ccccc3)cc2)C2CCCCC2=O)cc1 (centres unmarked) [AKC 132]	Dead

same assay, conditions: 2.6 μM, C. elegans L1, scored day 5

SMILES	5 Day Visual Score V4
O=C(Nc1ccc(Br)cc1)NC1CCC(c2nc(-c3ccccc3)no2)CC1 (centres unmarked) [AKC 114]	L3/Dead(L
CCOc1ccccc1C1=NOC(c2cccc3ccccc23)C1C(=O)NCc1ccc(OC(F)(F)F)cc1 (centres unmarked) [AKC 105]	L2/Dead(L

same assay, conditions: 7.8 μM, C. elegans L1, scored day 5

SMILES	5 Day Visual Score V3
Fc1ccc(N2CCN(c3nc(NCCC(c4ccccc4)c4ccccc4)ns3)CC2)cc1 [AKC 134]	Dead
O=C(Nc1ccc(Br)cc1)NC1CCC(c2nc(-c3ccccc3)no2)CC1 (centres unmarked) [AKC 114]	L3
CCCc1ccc(C(Nc2ccc(-c3ccccc3)cc2)C2CCCCC2=O)cc1 (centres unmarked) [AKC 132]	Dead
CCOc1ccccc1C1=NOC(c2cccc3ccccc23)C1C(=O)NCc1ccc(OC(F)(F)F)cc1 (centres unmarked) [AKC 105]	L2/Dead(L3)

same assay, conditions: 23.3 μM, C. elegans L1, scored day 5

SMILES	5 Day Visual Score V2
Fc1ccc(N2CCN(c3nc(NCCC(c4ccccc4)c4ccccc4)ns3)CC2)cc1 [AKC 134]	Dead
O=C(NCCc1ccccc1F)C1C(c2ccc(F)cc2)=NOC1c1ccc(-c2ccccc2)cc1 (centres unmarked) [AKC 2153]	L1
O=C(Nc1ccc(Br)cc1)NC1CCC(c2nc(-c3ccccc3)no2)CC1 (centres unmarked) [AKC 114]	L3/Dead(L4)
CCCc1ccc(C(Nc2ccc(-c3ccccc3)cc2)C2CCCCC2=O)cc1 (centres unmarked) [AKC 132]	Dead
CCOc1ccccc1C1=NOC(c2cccc3ccccc23)C1C(=O)NCc1ccc(OC(F)(F)F)cc1 (centres unmarked) [AKC 105]	L2/Dead(L3)

same assay, conditions: 70 μM, C. elegans L1, scored day 5

SMILES	5 Day Visual Score V1
Fc1ccc(N2CCN(c3nc(NCCC(c4ccccc4)c4ccccc4)ns3)CC2)cc1 [AKC 134]	Dead
O=C(NCCc1ccccc1F)C1C(c2ccc(F)cc2)=NOC1c1ccc(-c2ccccc2)cc1 (centres unmarked) [AKC 2153]	L1
O=C(Nc1ccc(Br)cc1)NC1CCC(c2nc(-c3ccccc3)no2)CC1 (centres unmarked) [AKC 114]	Dead
CCOc1ccc(C2ON=C(c3ccc(N(C)C)cc3)C2C(=O)NCCc2ccc(F)cc2)cc1 (centres unmarked) [AKC 123]	L1
CCCc1ccc(C(Nc2ccc(-c3ccccc3)cc2)C2CCCCC2=O)cc1 (centres unmarked) [AKC 132]	Dead(L2)
CCOc1ccccc1C1=NOC(c2cccc3ccccc23)C1C(=O)NCc1ccc(OC(F)(F)F)cc1 (centres unmarked) [AKC 105]	L2/Dead(L3)

same assay, conditions: Follow-up HTS run

SMILES	Follow-up HTS Run % Run	Follow-up HTS Run Visual Score	Follow-up HTS Run mOD
CC1CC(C)CN(c2nc(NCc3ccccc3)ns2)C1 (centres unmarked) [compound 264]	110%	L4/AD/B	177 mOD
CCN(CC)C(=O)C1CCCN(c2nc(N3CCN(c4ccc(F)cc4)CC3)ns2)C1 (centres unmarked) [compound 223]	118%	Dead	190 mOD
Cc1cccc(C)c1N1CCN(c2nc(NC3CCCCCCCCCCC3)ns2)CC1 [compound 329]	78%	Dead	125 mOD
CCCCCCCCCCNc1nsc(N(C)CCc2ccc(OC)c(OC)c2)n1 [compound 285]	131%	Dead	211 mOD

same assay, conditions: Initial HTS run

SMILES	Initial HTS Run % Run	Initial HTS Run Visual Score	Initial HTS Run mOD
CC1CC(C)CN(c2nc(NCc3ccccc3)ns2)C1 (centres unmarked) [compound 264]	104%	L4/AD/B	114 mOD
CCN(CC)C(=O)C1CCCN(c2nc(N3CCN(c4ccc(F)cc4)CC3)ns2)C1 (centres unmarked) [compound 223]	107%		118 mOD
Cc1cccc(C)c1N1CCN(c2nc(NC3CCCCCCCCCCC3)ns2)CC1 [compound 329]	100%	Dead (L2/L3)	110 mOD
CCCCCCCCCCNc1nsc(N(C)CCc2ccc(OC)c(OC)c2)n1 [compound 285]	149%	Dead	164 mOD

same assay, conditions: dose response, dilution V1, 5 day

SMILES	5 Day Visual Score V1
Cc1cccc(C)c1N1CCN(c2nc(NC3CCCCCCCCCCC3)ns2)CC1 [compound 329]	Dead

same assay, conditions: dose response, dilution V1, day 5

SMILES	5 Day Visual Score V1
CC1CC(C)CN(c2nc(NCc3ccccc3)ns2)C1 (centres unmarked) [compound 264]	L2
CCN(CC)C(=O)C1CCCN(c2nc(N3CCN(c4ccc(F)cc4)CC3)ns2)C1 (centres unmarked) [compound 223]	Dead
CCCCCCCCCCNc1nsc(N(C)CCc2ccc(OC)c(OC)c2)n1 [compound 285]	Dead

same assay, conditions: dose response, dilution V2, 5 day

SMILES	5 Day Visual Score V2
Cc1cccc(C)c1N1CCN(c2nc(NC3CCCCCCCCCCC3)ns2)CC1 [compound 329]	Dead

same assay, conditions: dose response, dilution V2, day 5

SMILES	5 Day Visual Score V2
CCN(CC)C(=O)C1CCCN(c2nc(N3CCN(c4ccc(F)cc4)CC3)ns2)C1 (centres unmarked) [compound 223]	B (low broodsize (25-100 progeny))
CCCCCCCCCCNc1nsc(N(C)CCc2ccc(OC)c(OC)c2)n1 [compound 285]	Dead

same assay, conditions: dose response, dilution V3, day 5

SMILES	5 Day Visual Score V3
CC1CC(C)CN(c2nc(NCc3ccccc3)ns2)C1 (centres unmarked) [compound 264]	< (reduced broodsize (250-500 progeny))
CCN(CC)C(=O)C1CCCN(c2nc(N3CCN(c4ccc(F)cc4)CC3)ns2)C1 (centres unmarked) [compound 223]	< (reduced broodsize (250-500 progeny))

same assay, conditions: dose response, dilution V4, 5 day

SMILES	5 Day Visual Score V4
Cc1cccc(C)c1N1CCN(c2nc(NC3CCCCCCCCCCC3)ns2)CC1 [compound 329]	OK (no effect (˜1000+ progeny))

same assay, conditions: dose response, dilution V4, day 5

SMILES	5 Day Visual Score V4
CC1CC(C)CN(c2nc(NCc3ccccc3)ns2)C1 (centres unmarked) [compound 264]	OK (no effect (˜1000+ progeny))
CCN(CC)C(=O)C1CCCN(c2nc(N3CCN(c4ccc(F)cc4)CC3)ns2)C1 (centres unmarked) [compound 223]	OK (no effect (˜1000+ progeny))
CCCCCCCCCCNc1nsc(N(C)CCc2ccc(OC)c(OC)c2)n1 [compound 285]	˜B (moderate broodsize (100-250 progeny))

same assay, conditions: dose response, dilution V5, 5 day

SMILES	5 Day Visual Score V5
Cc1cccc(C)c1N1CCN(c2nc(NC3CCCCCCCCCCC3)ns2)CC1 [compound 329]	OK (no effect (˜1000+ progeny))

same assay, conditions: dose response, dilution V5, day 5

SMILES	5 Day Visual Score V5
CC1CC(C)CN(c2nc(NCc3ccccc3)ns2)C1 (centres unmarked) [compound 264]	OK (no effect (˜1000+ progeny))
CCN(CC)C(=O)C1CCCN(c2nc(N3CCN(c4ccc(F)cc4)CC3)ns2)C1 (centres unmarked) [compound 223]	OK (no effect (˜1000+ progeny))
CCCCCCCCCCNc1nsc(N(C)CCc2ccc(OC)c(OC)c2)n1 [compound 285]	OK (no effect (˜1000+ progeny))

same assay, conditions: dose response, dilution V6, 5 day

SMILES	5 Day Visual Score V6
Cc1cccc(C)c1N1CCN(c2nc(NC3CCCCCCCCCCC3)ns2)CC1 [compound 329]	OK (no effect (˜1000+ progeny))

same assay, conditions: dose response, dilution V6, day 5

SMILES	5 Day Visual Score V6
CC1CC(C)CN(c2nc(NCc3ccccc3)ns2)C1 (centres unmarked) [compound 264]	OK (no effect (˜1000+ progeny))
CCN(CC)C(=O)C1CCCN(c2nc(N3CCN(c4ccc(F)cc4)CC3)ns2)C1 (centres unmarked) [compound 223]	OK (no effect (˜1000+ progeny))
CCCCCCCCCCNc1nsc(N(C)CCc2ccc(OC)c(OC)c2)n1 [compound 285]	OK (no effect (˜1000+ progeny))
